# From US20100048657A1, “CONTROL OF MALIGNANT CELLS PROLIFERATION THROUGH THE INHIBITION OF CASEIN KINASE 2” (CLEVELAND STATE UNIVERSITY, priority 2006, published 2010)
# Tested on: MEG-01 cells
# Assay: Anchorage independence assay in soft agar
# Type: cell-based, human
# Conditions: 25 μM
# Procedure: Anchorage independence of growth in soft agar assay is an assay for detecting malignant transformation of cells. Anchorage independence is given by defects in the cellular adhesion pathways. Anchorage independence is strongly connected with tumorogenicity and invasiveness. Malignant cells form colonies when grown on soft agar. Normal cells cannot grow on soft agar. Agarose (V3121 from Promega, with melting point at 87-89° C. and gelling point at 36-39° C.) was mixed with MEG-01 growth media RPMI1640 1× with 10% FBS and supplements. A bottom layer of 0.5% makes a firm base, then a top layer of 0.3% agarose with media and over the agarose a layer of growth media was added. Cells were grown in 12 wells dishes at 37° C., 5% CO2, 90% humidity in a VWR incubator. […] This modified image was then transformed into a default threshold image and then colonies were gated and measured.
# Referring to FIGS. 2-4, anchorage independence assay in soft agar ([…] and 0.3% top layer agar, with complete MEG-01 cells, growth media) is illustrated. […] The area of each colony was measured using the software NIH Image version 1.63. First the background was subtracted from a gray binary image, then default threshold was applied and then colonies were measured by appropriate gating. 85 colonies from 30 images were measured. […]
structure (smiles),measurement,setting,value
"CN(C)c1nc2c(Br)c(Br)c(Br)c(Br)c2[nH]1 [DMAT, 2-dimethylamino-4,5,6,7-tetrabromo-1H-benzimidazole]",colony sizes versus Control untreated,"85 colonies from 30 images, paired t-test p<0.0001",extremely significant
same,colony formation in soft agar,observed after one week,do not form colonies at all
